# Columns and labels:
# [1] = Blood clearance profile of peptide-dye conjugates monitored at the rat ear; assay type: in vivo, Sprague-Dawley or Fischer 344 rats; settings: bolus injection in the lateral tail vein, 0.5 to 2.0 mL
# Source text: A laser of appropriate wavelength for excitation of the dye chromophore was directed into one end of a fiber optic bundle and the other end was positioned a few millimeters from the ear of a rat. A second fiber optic bundle was also positioned near the same ear to detect the emitted fluorescent light and the other end was directed into the optics and electronics for data collection. An interference filter (IF) in the collection optics train was used to select emitted fluorescent light of the appropriate wavelength for the dye chromophore.
# Sprague-Dawley or Fischer 344 rats were used in these studies. The animals were anesthetized with urethane administered via intraperitoneal injection at a dose of 1.35 g/kg body weight. After the animals had achieved the desired plane of anesthesia, a 21 gauge butterfly with 12" tubing was placed in the lateral tail vein of each animal and flushed with heparinized saline. The animals were placed onto a heating pad and kept warm throughout the entire study. The lobe of the left ear was affixed to a glass microscope slide to reduce movement and vibration.
# Incident laser light delivered from the fiber optic was centered on the affixed ear. Data acquisition was then initiated, and a background reading of fluorescence was obtained prior to administration of the test agent. For Cytates 1 or 2, the peptide-dye conjugate was administered to the animal through a bolus injection in the lateral tail vein, typically of 0.5 to 2.0 mL.
# This procedure was repeated with several dye-peptide conjugates in normal and tumored rats and representative profiles are shown in FIGS. 6 to 10.
# [2] = tested on: somatostatin (SST-2) receptors; settings: cited from earlier work
# [3] = tested on: Rat Pancreatic Acinar Carcinoma (CA20948); assay: Imaging of individual organs removed from rat with CA20948 tumor; assay type: in vivo; settings: about 24 hours after injection (FIG. 5)
# Description: FIG. 5 is an image of individual organs taken from a rat with pancreatic acinar carcinoma (CA20948) about 24 hours after injection with Cytate 1.
# (§1) A non-invasive in vivo fluorescence imaging apparatus was employed to assess the efficacy of contrast agents developed for tumor detection in animal models. A LaserMax Inc. laser diode of nominal wavelength 780 nm and nominal power of 40 mW was used. The detector was a Princeton Instruments model RTE/CCD-1317-K/2 CCD camera with a Rodenstock 10 mm F2 lens (stock #542.032.002.20) attached. An 830 nm interference […] (CVI Laser Corp., part # F10-830-4-2) was mounted in front of the CCD input lens such that only emitted fluorescent light from the contrast agent was imaged. Typically, an image of the animal was taken pre-injection of contrast agent. This image was subsequently subtracted (pixel by pixel) from the post injection images. However, the background subtraction was […] done once the animal had been removed from the sample area and returned at a later time for images taken several hours post injection.
# Individual organs were removed and imaged. […] This correlates very nicely with radiolabeled Octreotate in the same model system (see de Jong et al., 1998).
# [4] = tested on: Rat Pancreatic Acinar Carcinoma (CA20948); assay: In vivo fluorescence imaging of rat pancreatic acinar carcinoma (CA20948) expressing the SST-2 receptor; design: species or system Lewis rat; settings: for fluorescence in tumored rats at 45 minutes: 45 minutes post injection (FIGS. 2A-B)
# Source text: as §1
# (§2) The animals were anesthetized with rat cocktail (xylazine; ketamine; acepromazine 1.5: 1.5: 0.5) at 0.8 mL/kg via intramuscular injection. The area of the tumor (left flank) was shaved to expose tumor and surrounding surface area. A 21 gauge butterfly equipped with a stopcock and two syringes containing heparinized saline was placed into the later tail vein of the rat. Patency of the vein was checked prior to administration of the ICG via the butterfly apparatus. Each animal received 500 μL of a 0.42 mg/mL solution of ICG in water.
# The imaging apparatus and the procedure used are described in Example 9. Rat pancreatic acinar carcinoma expressing the SST-2 receptor (CA20948) were induced by solid implant technique in the left flank area and palpable masses were detected 9 days post implant.
# The imaging apparatus and the procedure used are described in Example 9 except that each animal received 500 μL of a 1.0 mg/mL solution of Cytate 1 solution of 25% dimethylsulfoxide in water. Rat pancreatic acinar carcinoma expressing the SST-2 receptor (CA20948) were induced by solid implant technique in the left flank area and palpable masses were detected 24 days post implant. Images were obtained at various times post injection. […] FIGS. 2A-B show a comparison of the uptake of ICG and Cytate 1 at 45 minutes in rats with the CA20948 tumor cell line.
# Cytate 1 was evaluated in the CA20948 Lewis rat model. […] As a control, the organs were imaged again (FIG. 4A) and the image was compared with that of the same tissues in the uninjected rat (FIG. 4B).
# [5] = tested on: pancreatic ductal adenocarcinoma (DSL 6A); assay: In vivo fluorescence imaging of pancreatic ductal adenocarcinoma (DSL 6A) in rats; design: species or system male Lewis rats
# Source text: as §1
# DSL 6A tumors were induced in male Lewis rats in the left flank area by the introduction of material from a solid (donor) implant and the tumors were palpable in approximately 14 days.
# The animals were anesthetized with rat cocktail (xylazine; ketamine; acepromazine 1.5: 1.5: 0.5) at 0.8 mL/kg via intramuscular injection. The area of the tumor (left flank) was shaved to expose tumor and surrounding surface area. […]
# [6] = tested on: Prostatic Carcinoma (R3327-H); assay: In vivo fluorescence imaging of prostatic carcinoma (R3327-H) in rats; design: species or system young male Copenhagen rats; settings: Dunning R3327-H
# Source text: as §1
# as §2, with “Each animal received 500 μL of a 0.42 mg/mL solution of ICG in water.” left out
structure (smiles),measurement,setting,value
"C[C@@H](O)[C@H](NC(=O)[C@@H]1CSSC[C@H](NC(=O)[C@@H](Cc2ccccc2)NC(=O)CCN2C(=CC=CC=CC=CC3=[N+](CCC(=O)N[C@H](Cc4ccccc4)C(=O)N[C@H]4CSSC[C@@H](C(=O)N[C@H](C(=O)O)[C@@H](C)O)NC(=O)[C@H]([C@@H](C)O)NC(=O)[C@H](CCCCN)NC(=O)[C@@H](Cc5c[nH]c6ccccc56)NC(=O)[C@H](Cc5ccc(O)cc5)NC4=O)c4ccc5ccccc5c4C3(C)C)C(C)(C)c3c2ccc2ccccc32)C(=O)N[C@@H](Cc2ccc(O)cc2)C(=O)N[C@H](Cc2c[nH]c3ccccc23)C(=O)N[C@@H](CCCCN)C(=O)N[C@@H]([C@@H](C)O)C(=O)N1)C(=O)O [Cytate 2, bisOctreotate-Bisethylcarboxymethylindocyanine dye]",decay of fluorescence signal (blood clearance),[1],decayed as a function of time as the conjugate cleared from the bloodstream
same,fluorescence signal after bolus injection (rise),[1],rapidly increased to a peak value
"C[C@@H](O)[C@H](NC(=O)[C@@H]1CSSC[C@H](NC(=O)[C@H](N)Cc2ccccc2)C(=O)N[C@@H](Cc2ccc(O)cc2)C(=O)N[C@H](Cc2c[nH]c3ccccc23)C(=O)N[C@@H](CCCCN)C(=O)N[C@@H]([C@@H](C)O)C(=O)N1)C(=O)O [Octreotate, D-Phe-Cys'-Tyr-D-Trp-Lys-Thr-Cys'-Thr]",targeting of somatostatin (SST-2) receptors,[2],known to target somatostatin (SST-2) receptors
"C[C@@H](O)[C@H](NC(=O)[C@@H]1CSSC[C@H](NC(=O)[C@@H](Cc2ccccc2)NC(=O)CC[N+]2=C(/C=C/C=C/C=C/C=C3/N(CCC(=O)O)c4ccc5ccccc5c4C3(C)C)C(C)(C)c3c2ccc2ccccc32)C(=O)N[C@@H](Cc2ccc(O)cc2)C(=O)N[C@H](Cc2c[nH]c3ccccc23)C(=O)N[C@@H](CCCCN)C(=O)N[C@@H]([C@@H](C)O)C(=O)N1)C(=O)O [Cytate 1, monoOctreotate-Bisethylcarboxymethylindocyanine dye]",decay of fluorescence signal (blood clearance),[1],decayed as a function of time as the conjugate cleared from the bloodstream
same,fluorescence signal after bolus injection (rise),[1],rapidly increased to a peak value
same,"uptake in heart, muscle, spleen and liver",[3],significantly less uptake
same,"uptake in pancreas, adrenals and tumor tissue",[3],High uptake
same,uptake into the tumor,"[4]; CA20948, 2 minutes post injection, 500 μL of 1.0 mg/mL in 25% dimethylsulfoxide in water",Uptake into the tumor was seen at 2 minutes
same,fluorescence in tumored rats at 45 minutes,[4]; CA20948,still quite intense
same,localization in the tumor,"[4]; CA20948, 90 minutes post injection (FIG. 3A)",strong localization
same,specificity for the SST-2 receptors,"[4]; CA20948, 19 hours post injection",showing specificity of this agent for the SST-2 receptors
same,tumor visualization,"[4]; CA20948, 19 hours post injection (FIG. 3B)",tumor visualization was easily observed
same,duration of dye fluorescence in the tumor,"[4]; CA20948, post-injection",remained intense in the tumor for several hours post-injection
"CC1(C)C(/C=C/C=C/C=C/C=C2\N(CCCCS(=O)(=O)O)c3ccc4ccccc4c3C2(C)C)=[N+](CCCCS(=O)(=O)[O-])c2ccc3ccccc3c21 [ICG, indocyanine green]",perfusion of the agent into the tumor,"[4]; CA20948, 30 minutes post injection",only a slight but transient perfusion that was absent after only 30 minutes post injection
same,fluorescence in tumored rats at 45 minutes,[4]; CA20948,mostly cleared
same,non-specific localization,[4]; CA20948 compared to the other two tumor lines,no non-specific localization
same,reasonable images obtained,[5],reasonable images were obtained
same,perfusion of the agent into the tumor,[5]; 500 μL of 0.42 mg/mL in water,slow perfusion of the agent over time into the tumor
same,perfusion of the agent into the tumor,[6],slow perfusion of the agent over time into the tumor
same,reasonable images obtained,[6],reasonable images were obtained
